Calls of active or inactive are those of the source. The rule behind the calls is not given here.
How the values were obtained:
[1] = Effect on cleaved PARP level in human NCI-H526 cells assessed as fold change at 1000 nM measured after 7 days by Western blot analysis (reference value: 1.00); assay type: functional; details: time 7 day
[2] = molecular target: Kappa-type opioid receptor (Homo sapiens, UniProt P41145); assay: Antagonist activity at KOR (unknown origin); assay type: functional
[3] = Inhibition of COX (unknown origin); set-up: species or system Homo sapiens
[4] = test system: SHP77; assay: Effect on NCAM gene expression in human SHP77 cells at 1 uM measured after 4 days by qRT-PCR analysis; assay type: functional, cell-based; details: time 4.0 day
[5] = Toxicity in mouse xenografted with human NCI-H526 cells assessed as grooming behaviour at 1.5 mg/kg, po administered daily measured for 30 days; assay type: organism-based; details: in vivo, 720 h, time 30 day
[6] = Toxicity in mouse xenografted with human NCI-H526 cells assessed as body weight loss at 1.5 mg/kg, po administered daily measured for 30 days; assay type: organism-based; details: in vivo, 720 h, time 30 day
[7] = Effect on cleaved PARP level in human NCI-H1694 cells assessed as relative expression at 10 nM measured after 10 days by Western blot analysis (reference value: 0.31); assay type: functional; details: time 10 day
[8] = Effect on cleaved PARP level in human NCI-H1694 cells assessed as relative expression at 10 nM measured after 7 days by Western blot analysis (reference value: 0.25); assay type: functional; details: time 7 day
[9] = molecular target: Tyrosine-protein kinase Lck (Homo sapiens, UniProt P06239); assay: Inhibition of LCK (unknown origin)
Tyrosine-protein kinase Lck, sequence (P06239 whole entry): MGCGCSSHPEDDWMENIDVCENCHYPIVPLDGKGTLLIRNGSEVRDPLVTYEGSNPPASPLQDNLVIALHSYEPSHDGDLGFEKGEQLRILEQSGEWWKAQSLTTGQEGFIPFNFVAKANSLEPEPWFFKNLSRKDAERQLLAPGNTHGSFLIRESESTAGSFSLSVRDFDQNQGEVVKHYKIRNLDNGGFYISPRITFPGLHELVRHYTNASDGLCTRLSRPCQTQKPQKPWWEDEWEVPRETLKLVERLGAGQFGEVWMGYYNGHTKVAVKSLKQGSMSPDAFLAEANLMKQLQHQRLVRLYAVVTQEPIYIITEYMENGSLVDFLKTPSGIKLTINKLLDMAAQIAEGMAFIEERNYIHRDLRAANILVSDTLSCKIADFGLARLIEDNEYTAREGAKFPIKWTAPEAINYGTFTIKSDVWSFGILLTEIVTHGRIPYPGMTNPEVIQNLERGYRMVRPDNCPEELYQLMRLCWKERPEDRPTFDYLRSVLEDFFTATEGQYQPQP

[10] = Effect on cleaved PARP level in human NCI-H526 cells assessed as relative expression at 100 nM measured after 14 days by Western blot analysis (reference value: 0.66); assay type: functional; details: time 14 day
[11] = Effect on cleaved PARP level in human NCI-H526 cells assessed as fold change at 100 nM measured after 14 days by Western blot analysis (reference value: 1.00); assay type: functional; details: time 14 day
[12] = Effect on cleaved PARP level in human COLO-668 cells assessed as fold change at 100 nM measured after 14 days by Western blot analysis (reference value: 1.00); assay type: functional; details: time 14 day
[13] = Effect on cleaved PARP level in human COLO-668 cells assessed as fold change at 100 nM measured after 10 days by Western blot analysis (reference value: 1.00); assay type: functional; details: time 10 day
[14] = Effect on cleaved PARP level in human COLO-668 cells assessed as fold change at 1000 nM measured after 10 days by Western blot analysis (reference value: 1.00); assay type: functional; details: time 10 day
[15] = test system: NCI-H146; assay: Effect on NSE gene expression in human NCI-H146 cells at 1 uM measured after 4 to 7 days by qRT-PCR analysis; assay type: functional, cell-based; details: time 4-7 day
[16] = molecular target: Nuclear receptor subfamily 1 group I member 2 (Homo sapiens, UniProt O75469); assay: Activation of PXR (unknown origin)
Nuclear receptor subfamily 1 group I member 2, sequence (O75469 whole entry): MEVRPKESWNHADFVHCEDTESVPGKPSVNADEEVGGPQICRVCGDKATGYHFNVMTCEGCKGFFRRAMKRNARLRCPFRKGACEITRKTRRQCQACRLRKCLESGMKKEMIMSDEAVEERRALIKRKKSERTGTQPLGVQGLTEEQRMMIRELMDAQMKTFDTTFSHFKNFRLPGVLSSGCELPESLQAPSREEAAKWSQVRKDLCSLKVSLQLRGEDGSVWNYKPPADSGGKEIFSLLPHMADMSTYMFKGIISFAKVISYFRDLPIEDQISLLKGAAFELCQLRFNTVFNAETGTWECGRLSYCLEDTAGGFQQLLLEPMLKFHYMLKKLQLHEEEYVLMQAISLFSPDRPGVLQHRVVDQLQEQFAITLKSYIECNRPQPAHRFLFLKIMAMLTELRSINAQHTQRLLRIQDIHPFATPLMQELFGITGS

[17] = Effect on cleaved PARP level in human NCI-H1694 cells assessed as fold change at 10 nM measured after 10 days by Western blot analysis (reference value: 1.00); assay type: functional; details: time 10 day
[18] = molecular target: T1, 5-hydroxytryptamine receptor 2C (Homo sapiens, UniProt P28335); assay: Agonist activity at 5-HT2C receptor (unknown origin); assay type: functional
T1 sequence (P28335 whole entry): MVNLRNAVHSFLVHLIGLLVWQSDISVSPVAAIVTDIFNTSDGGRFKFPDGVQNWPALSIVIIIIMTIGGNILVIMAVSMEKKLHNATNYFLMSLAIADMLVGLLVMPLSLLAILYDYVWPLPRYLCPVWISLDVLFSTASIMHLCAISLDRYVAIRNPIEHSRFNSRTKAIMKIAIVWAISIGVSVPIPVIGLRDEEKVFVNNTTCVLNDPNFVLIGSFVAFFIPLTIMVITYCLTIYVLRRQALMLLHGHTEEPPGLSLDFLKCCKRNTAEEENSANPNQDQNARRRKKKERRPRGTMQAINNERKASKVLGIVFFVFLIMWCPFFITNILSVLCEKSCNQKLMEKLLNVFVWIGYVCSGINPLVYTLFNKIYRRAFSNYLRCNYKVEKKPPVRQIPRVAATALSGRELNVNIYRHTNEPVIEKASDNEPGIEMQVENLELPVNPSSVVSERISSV

[19] = molecular target: D(1A) dopamine receptor (Homo sapiens, UniProt P21728); assay: Antagonist activity at Dopamine D1 receptor (unknown origin); assay type: functional
D(1A) dopamine receptor, sequence (P21728 whole entry): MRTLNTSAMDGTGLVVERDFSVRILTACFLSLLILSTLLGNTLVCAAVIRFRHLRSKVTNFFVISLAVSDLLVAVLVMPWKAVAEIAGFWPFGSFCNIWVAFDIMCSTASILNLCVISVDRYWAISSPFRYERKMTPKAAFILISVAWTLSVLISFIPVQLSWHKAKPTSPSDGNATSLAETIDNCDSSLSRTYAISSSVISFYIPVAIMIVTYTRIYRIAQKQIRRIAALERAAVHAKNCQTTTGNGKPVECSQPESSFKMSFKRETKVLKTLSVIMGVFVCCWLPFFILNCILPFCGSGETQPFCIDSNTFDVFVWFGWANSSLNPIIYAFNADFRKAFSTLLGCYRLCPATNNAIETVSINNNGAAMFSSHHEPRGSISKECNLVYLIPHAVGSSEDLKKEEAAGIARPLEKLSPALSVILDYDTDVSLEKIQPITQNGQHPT

[20] = Effect on cleaved PARP level in human NCI-H524 cells assessed as relative expression at 100 nM measured after 14 days by Western blot analysis (reference value: […]); assay type: functional; details: time 14 day
[21] = Toxicity in dog assessed as myelofibrosis measured for 28 days; set-up: species or system Canis lupus familiaris; details: in vivo, 672 h, time 28 day
[22] = Effect on cleaved PARP level in human NCI-H1417 cells assessed as fold change at 10 nM measured after 14 days by Western blot analysis (reference value: 1.00); assay type: functional; details: time 14 day
[23] = molecular target: Phosphatidylinositol 4,5-bisphosphate 3-kinase catalytic subunit gamma isoform (Homo sapiens, UniProt P48736); assay: Inhibition of PI3Kgamma (unknown origin)
Phosphatidylinositol 4,5-bisphosphate 3-kinase catalytic subunit gamma isoform, sequence (P48736 whole entry, canonical isoform): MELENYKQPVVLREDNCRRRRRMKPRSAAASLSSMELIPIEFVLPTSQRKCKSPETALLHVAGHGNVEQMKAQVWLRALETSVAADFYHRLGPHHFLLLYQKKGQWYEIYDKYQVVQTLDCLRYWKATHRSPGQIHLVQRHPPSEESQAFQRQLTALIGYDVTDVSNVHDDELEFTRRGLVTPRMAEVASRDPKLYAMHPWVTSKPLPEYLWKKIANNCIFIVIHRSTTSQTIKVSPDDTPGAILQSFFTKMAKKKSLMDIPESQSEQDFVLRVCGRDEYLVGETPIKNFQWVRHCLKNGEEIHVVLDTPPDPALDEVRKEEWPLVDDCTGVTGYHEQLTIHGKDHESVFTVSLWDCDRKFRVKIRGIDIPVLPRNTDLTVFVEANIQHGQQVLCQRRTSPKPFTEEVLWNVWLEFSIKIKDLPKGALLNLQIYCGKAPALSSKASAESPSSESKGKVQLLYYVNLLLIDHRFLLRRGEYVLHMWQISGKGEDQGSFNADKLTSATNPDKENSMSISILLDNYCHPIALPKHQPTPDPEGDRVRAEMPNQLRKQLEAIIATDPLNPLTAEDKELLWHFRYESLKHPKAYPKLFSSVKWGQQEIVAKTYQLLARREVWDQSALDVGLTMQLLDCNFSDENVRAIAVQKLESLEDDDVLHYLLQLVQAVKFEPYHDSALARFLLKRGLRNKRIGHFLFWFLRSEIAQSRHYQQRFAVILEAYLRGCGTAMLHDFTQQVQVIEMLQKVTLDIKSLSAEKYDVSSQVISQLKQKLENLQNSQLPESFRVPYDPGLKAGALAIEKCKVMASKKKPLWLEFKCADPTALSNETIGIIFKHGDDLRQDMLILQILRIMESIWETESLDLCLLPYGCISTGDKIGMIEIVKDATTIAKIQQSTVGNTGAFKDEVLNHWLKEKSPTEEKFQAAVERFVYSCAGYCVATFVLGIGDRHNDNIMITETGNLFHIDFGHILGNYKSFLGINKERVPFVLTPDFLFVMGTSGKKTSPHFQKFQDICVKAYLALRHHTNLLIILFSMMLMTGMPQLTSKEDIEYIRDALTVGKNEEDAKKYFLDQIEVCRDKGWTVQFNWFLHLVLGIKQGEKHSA

[24] = Toxicity in rat assessed as morbidity measured for 28 days; details: in vivo, 672 h, time 28 day
[25] = molecular target: D(2) dopamine receptor (Homo sapiens, UniProt P14416); assay: Agonist activity at Dopamine D2 receptor (unknown origin); assay type: functional
D(2) dopamine receptor, sequence (P14416 whole entry): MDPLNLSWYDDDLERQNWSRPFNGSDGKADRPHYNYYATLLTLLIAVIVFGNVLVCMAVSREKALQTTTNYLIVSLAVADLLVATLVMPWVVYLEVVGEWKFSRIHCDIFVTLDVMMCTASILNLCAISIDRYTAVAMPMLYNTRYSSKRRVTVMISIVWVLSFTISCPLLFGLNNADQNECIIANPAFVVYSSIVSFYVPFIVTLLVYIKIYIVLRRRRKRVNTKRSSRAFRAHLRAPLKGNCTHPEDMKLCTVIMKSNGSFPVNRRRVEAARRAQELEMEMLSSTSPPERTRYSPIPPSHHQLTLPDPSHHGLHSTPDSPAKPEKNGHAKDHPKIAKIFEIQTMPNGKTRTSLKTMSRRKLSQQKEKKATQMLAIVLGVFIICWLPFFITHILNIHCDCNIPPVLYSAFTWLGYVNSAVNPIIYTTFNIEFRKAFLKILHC

[26] = test system: NCI-H526; assay: In vivo inhibition of LSD1 in human NCI-H526 cells xenografted in nude mouse assessed as change in TOX3 gene expression administrated daily for 5 days by qRT-PCR analysis; assay type: functional, organism-based; details: dose 0.02-135 mg/kg, time 5.0 day
[27] = Toxicity in dog assessed as suppression of neutrophil in bone marrow measured for 28 days; assay type: cell-based, Canis lupus familiaris; details: 672 h, time 28 day
[28] = Effect on cleaved PARP level in human NCI-H889 cells assessed as relative expression at 100 nM measured after 10 days by Western blot analysis (reference value: 0.33); assay type: functional; details: time 10 day
[29] = test system: NCI-H69; assay: Antitumor activity against human NCI-H69 cells xenografted in nude mouse assessed as mean tumor volume at 0.5 mg/kg, po administered daily measured twice weekly (reference value: 1063 +/- 161 mm3); assay type: functional
[30] = test system: NCI-H1417; assay: Effect on cell cycle in human NCI-H1417 cells assessed as cell accumulation at […] phase upto 1000 nM measured for 7 to 14 days by flow cytometry; assay type: functional, cell-based; details: time 7-14 day
[31] = Tmax in mouse tumor at 5 mg/kg, po by HPLC/MS/MS analysis; assay type: ADME, organism-based, Neoplasm
[32] = Effect on cleaved PARP level in human NCI-H1694 cells assessed as relative expression at 1000 nM measured after 10 days by Western blot analysis (reference value: .31); assay type: functional; details: time 10 day
[33] = molecular target: Sodium-dependent noradrenaline transporter (Homo sapiens, UniProt P23975); assay: Inhibition of NET (unknown origin)
Sodium-dependent noradrenaline transporter, sequence (P23975 whole entry): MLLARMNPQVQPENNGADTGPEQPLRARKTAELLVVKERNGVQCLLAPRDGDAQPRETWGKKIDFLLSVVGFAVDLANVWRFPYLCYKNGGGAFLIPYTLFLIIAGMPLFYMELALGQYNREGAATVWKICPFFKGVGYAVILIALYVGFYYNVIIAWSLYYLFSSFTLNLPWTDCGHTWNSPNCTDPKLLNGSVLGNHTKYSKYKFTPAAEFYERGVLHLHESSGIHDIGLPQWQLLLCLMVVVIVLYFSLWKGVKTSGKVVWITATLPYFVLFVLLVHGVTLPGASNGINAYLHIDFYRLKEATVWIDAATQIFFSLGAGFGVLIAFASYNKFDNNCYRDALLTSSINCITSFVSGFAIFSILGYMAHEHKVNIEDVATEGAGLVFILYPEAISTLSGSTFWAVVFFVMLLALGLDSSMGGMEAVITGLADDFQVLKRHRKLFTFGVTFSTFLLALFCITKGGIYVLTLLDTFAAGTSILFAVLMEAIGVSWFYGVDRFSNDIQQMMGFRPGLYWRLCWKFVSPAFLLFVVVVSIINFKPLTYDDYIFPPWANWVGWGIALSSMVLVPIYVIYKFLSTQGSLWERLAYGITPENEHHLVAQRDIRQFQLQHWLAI

[34] = molecular target: Lysine-specific histone demethylase 1A (Homo sapiens, UniProt O60341); details: NCI-H526, dose 1-10000 nM, time 1-7 day
Description: Inhibition of LSD1 in human NCI-H526 cells assessed as change in IGFBP2 gene expression treated for 1 to 7 days by qRT-PCR analysis

Kappa-type opioid receptor, sequence (P41145 whole entry): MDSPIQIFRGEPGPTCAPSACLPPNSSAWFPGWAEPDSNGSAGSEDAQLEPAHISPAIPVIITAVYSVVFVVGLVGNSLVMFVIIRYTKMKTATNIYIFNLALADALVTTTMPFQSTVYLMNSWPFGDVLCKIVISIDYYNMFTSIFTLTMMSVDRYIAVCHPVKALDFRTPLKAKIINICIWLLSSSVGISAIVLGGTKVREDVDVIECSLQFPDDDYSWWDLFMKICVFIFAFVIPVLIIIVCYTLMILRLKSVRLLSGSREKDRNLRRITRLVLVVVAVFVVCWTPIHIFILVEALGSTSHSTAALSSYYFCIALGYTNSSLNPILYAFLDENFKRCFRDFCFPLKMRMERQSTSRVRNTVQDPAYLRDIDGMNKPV

## O=C(O)c1ccc(CN2CCC(CN[C@@H]3C[C@H]3c3ccccc3)CC2)cc1 [GSK2879552]
[1]
  fold change (FC): 1.3
[2]
  EC50: > 100 µM
[3]
  IC50: 25 µM
[4]
  Activity: inactive
[5]
  Activity: Non-Toxic
[6]
  Activity: Non-Toxic
[7]
  Activity: 0.27
[8]
  Activity: 0.3
[9]
  IC50: > 32 µM
[10]
  Activity: 0.93
[11]
  fold change (FC): 1.41
[12]
  fold change (FC): 0.25
[13]
  fold change (FC): 0.69
[14]
  fold change (FC): 0.59
[15]
  Activity: inactive
[16]
  EC50: > 30 µM
[17]
  fold change (FC): 0.88
[18]
  EC50: > 40 µM
[19]
  EC50: > 32 µM
[20]
  Activity: 1.13
[21]
  Activity: Toxic
[22]
  fold change (FC): 0.82
[23]
  IC50: > 32 µM
[24]
  Activity: Toxic
[25]
  EC50: 20 µM
[26]
  inhibition: Dose-Dependent Effect
[27]
  Activity: Toxic
[28]
  Activity: 0.74
[29]
  Activity: 592 mm3
[30]
  Activity: inactive
[31]
  Tmax: 30 min
[32]
  Activity: 0.22
[33]
  IC50: > 100 µM
[34]
  inhibition: Dose-Dependent Effect

## c1ccc([C@@H]2C[C@H]2NC2CCNCC2)cc1
[2]
  EC50: > 100 µM
[3]
  IC50: > 100 µM
[9]
  IC50: > 32 µM
[16]
  EC50: > 30 µM
[18]
  EC50: > 25 µM
[19]
  EC50: > 100 µM
[23]
  IC50: > 32 µM
[25]
  EC50: > 100 µM
[33]
  IC50: 25 µM

— ChEMBL document CHEMBL5705903, “A DNA Hypomethylation Signature Predicts Antitumor Activity of LSD1 Inhibitors in SCLC” (Cancer Cell, 2015)
